Measurements: ChEMBL document CHEMBL1201862, “PubChem BioAssay data set” (2004)
The source made the active and inactive calls.

Key:
[1] = molecular target: T1, Corticotropin-releasing factor receptor 2/Corticotropin-releasing factor-binding protein (Homo sapiens, UniProt P24387+Q13324); test: Dose Response confirmation of uHTS hits for small molecule antagonists of the CRF-binding protein and CRF-R2 receptor complex.; assay type: functional; conditions: read-out: IC50_Mean
T1 sequence (Q13324 whole entry): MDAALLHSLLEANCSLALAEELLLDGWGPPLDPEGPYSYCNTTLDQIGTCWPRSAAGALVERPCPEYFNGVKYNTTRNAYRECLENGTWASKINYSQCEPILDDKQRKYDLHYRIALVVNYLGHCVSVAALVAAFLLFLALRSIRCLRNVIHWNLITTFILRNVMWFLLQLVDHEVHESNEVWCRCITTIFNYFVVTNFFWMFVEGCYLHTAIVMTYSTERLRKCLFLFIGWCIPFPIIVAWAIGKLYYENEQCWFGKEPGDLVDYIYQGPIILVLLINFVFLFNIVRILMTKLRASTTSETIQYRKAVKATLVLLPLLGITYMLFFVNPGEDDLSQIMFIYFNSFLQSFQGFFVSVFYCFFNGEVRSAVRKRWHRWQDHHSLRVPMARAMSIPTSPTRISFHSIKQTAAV
T1 sequence (P24387 whole entry): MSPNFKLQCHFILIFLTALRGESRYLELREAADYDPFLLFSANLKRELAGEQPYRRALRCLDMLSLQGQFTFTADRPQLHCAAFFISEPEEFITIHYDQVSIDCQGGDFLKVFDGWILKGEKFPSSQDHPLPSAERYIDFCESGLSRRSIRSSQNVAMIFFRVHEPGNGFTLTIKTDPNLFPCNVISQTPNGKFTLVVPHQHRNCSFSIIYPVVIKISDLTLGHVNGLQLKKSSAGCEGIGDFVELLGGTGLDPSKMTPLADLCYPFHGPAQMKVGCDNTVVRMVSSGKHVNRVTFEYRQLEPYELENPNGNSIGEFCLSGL

[2] = molecular target: T1, Corticotropin-releasing factor receptor 2/Corticotropin-releasing factor-binding protein; test: activators of CRF receptor 2 with binding protein – uHTS hits, confirmation (AID 602473); assay type: functional; conditions: read-out: EC50_Mean
cells = assay type: functional
[3] = P. falciparum Dd2 growth inhibitors, dose response, SYBR Green, cherry-picked samples (AID 1159567); assay type: functional, cell-based
Cytochrome P450 2C19 = Cytochrome P450 2C19 (Homo sapiens, UniProt P33261); test: Cytochrome panel assay with activity outcomes. Panel member name: p450-cyp2c19 Compounds with AC50 equal or less than 10 uM are considered active; assay type: functional; conditions: read-out: AC50
Cytochrome P450 2D6 = Cytochrome P450 2D6 (Homo sapiens, UniProt P10635);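 note: CYP2D6 member of a cytochrome P450 panel assay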
Cytochrome P450 1A2 = molecular target: T2, Cytochrome P450 1A2 (Homo sapiens, UniProt P05177);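 note: PubChem cytochrome P450 panel assay, CYP1A2 panel member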
T2 sequence (P05177 whole entry): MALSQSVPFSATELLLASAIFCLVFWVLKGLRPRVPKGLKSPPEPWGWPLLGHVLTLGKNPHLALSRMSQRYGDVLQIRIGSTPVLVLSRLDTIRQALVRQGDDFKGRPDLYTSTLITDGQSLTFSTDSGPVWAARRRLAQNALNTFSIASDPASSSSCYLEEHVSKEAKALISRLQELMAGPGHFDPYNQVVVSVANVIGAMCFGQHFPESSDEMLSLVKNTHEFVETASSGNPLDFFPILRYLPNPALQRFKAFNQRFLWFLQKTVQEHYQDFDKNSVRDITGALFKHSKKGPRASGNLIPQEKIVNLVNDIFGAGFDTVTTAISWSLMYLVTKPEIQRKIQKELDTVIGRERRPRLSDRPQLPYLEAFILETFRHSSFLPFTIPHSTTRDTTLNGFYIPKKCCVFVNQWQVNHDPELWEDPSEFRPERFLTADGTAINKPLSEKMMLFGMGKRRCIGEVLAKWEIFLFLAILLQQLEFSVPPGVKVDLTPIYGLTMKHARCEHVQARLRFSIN

Cytochrome P450 2C9 = Cytochrome P450 2C9 (Homo sapiens, UniProt P11712)
[4] = molecular target: T3, Rac GTPase-activating protein 1 (Homo sapiens, UniProt Q9H0H5); test: blockers of MgcRacGAP-driven Rac1 GTP hydrolysis – biochemical, ADP Hunter fluorescence, primary and confirmatory, confirmation (AID 624330); assay type: functional
T3 sequence (Q9H0H5 whole entry): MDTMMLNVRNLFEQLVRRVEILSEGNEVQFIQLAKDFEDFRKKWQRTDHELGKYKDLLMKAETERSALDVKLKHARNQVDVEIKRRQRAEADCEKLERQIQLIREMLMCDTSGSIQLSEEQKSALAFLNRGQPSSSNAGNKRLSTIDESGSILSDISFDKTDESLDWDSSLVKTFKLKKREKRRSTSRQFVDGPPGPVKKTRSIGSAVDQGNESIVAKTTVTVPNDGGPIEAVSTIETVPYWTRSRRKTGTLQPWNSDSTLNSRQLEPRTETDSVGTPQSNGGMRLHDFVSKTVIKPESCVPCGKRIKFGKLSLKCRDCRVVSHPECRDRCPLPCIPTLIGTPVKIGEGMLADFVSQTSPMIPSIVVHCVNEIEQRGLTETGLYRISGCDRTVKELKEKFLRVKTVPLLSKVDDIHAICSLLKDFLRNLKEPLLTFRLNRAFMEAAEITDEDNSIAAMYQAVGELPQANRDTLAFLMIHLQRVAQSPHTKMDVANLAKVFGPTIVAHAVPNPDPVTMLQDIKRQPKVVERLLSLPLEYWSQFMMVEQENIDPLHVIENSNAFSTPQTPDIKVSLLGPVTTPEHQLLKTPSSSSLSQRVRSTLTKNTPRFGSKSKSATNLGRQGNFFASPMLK

Cytochrome P450 3A4 = Cytochrome P450 3A4 (Homo sapiens, UniProt P08684);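 note: CYP3A4 tested as one member of a cytochrome P450 panel screen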
[5] = viability of PTEN-deleted HCT116 cells – cell-based, HCT116 PTEN knockout, dose response (AID 1047); assay type: functional;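 note: HCT116 colon tumor cells with PTEN knocked out; cells exposed to compound for 60 hours before readout; potency for loss of cell viability measured by luminescence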
[6] = viability of HCT116 lacking mutant beta-catenin – cell-based, human colon tumor, dose response (AID 1045); assay type: functional;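 note: HCT116 colon tumor cells with beta catenin knocked out; cells exposed to compound for 60 hours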

Sequence of Cytochrome P450 2C9 (P11712 whole entry): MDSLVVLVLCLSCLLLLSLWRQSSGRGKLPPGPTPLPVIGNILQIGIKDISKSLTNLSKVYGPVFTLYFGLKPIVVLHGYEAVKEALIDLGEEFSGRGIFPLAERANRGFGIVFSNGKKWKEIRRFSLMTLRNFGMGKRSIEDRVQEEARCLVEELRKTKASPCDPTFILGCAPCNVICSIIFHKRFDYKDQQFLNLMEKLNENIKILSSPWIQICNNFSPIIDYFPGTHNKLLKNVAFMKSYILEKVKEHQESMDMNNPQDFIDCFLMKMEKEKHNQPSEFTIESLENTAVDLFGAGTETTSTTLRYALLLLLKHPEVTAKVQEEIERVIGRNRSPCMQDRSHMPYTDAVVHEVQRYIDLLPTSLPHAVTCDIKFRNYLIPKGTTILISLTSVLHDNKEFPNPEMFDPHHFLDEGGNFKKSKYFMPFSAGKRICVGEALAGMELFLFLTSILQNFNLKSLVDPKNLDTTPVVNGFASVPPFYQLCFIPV
Sequence of Cytochrome P450 2D6 (P10635 whole entry): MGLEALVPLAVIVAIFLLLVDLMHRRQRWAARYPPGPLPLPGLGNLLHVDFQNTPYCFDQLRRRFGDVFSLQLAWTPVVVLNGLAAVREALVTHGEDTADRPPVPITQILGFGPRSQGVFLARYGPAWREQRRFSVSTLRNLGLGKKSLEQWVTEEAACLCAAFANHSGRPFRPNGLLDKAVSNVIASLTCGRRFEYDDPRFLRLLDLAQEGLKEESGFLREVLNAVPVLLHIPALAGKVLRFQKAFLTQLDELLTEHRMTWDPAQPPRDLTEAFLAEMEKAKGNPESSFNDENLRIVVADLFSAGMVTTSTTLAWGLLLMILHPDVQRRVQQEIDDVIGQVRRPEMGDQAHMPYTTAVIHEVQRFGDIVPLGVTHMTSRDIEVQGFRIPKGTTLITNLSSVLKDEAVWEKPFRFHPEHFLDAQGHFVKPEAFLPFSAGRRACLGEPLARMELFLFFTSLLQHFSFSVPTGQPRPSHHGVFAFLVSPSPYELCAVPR
Sequence of Cytochrome P450 3A4 (P08684 whole entry): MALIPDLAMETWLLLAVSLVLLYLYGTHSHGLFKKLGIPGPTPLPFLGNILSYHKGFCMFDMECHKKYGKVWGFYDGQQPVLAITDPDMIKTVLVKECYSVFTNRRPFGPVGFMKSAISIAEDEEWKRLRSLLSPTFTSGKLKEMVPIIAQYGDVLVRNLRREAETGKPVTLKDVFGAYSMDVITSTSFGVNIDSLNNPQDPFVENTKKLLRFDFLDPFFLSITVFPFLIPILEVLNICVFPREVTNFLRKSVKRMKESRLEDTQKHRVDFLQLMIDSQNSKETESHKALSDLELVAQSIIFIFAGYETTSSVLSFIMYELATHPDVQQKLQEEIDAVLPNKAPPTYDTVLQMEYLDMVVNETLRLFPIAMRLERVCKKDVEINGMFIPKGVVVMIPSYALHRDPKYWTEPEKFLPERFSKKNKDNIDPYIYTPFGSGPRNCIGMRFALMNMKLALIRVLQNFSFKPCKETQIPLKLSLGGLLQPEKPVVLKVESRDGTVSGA
Sequence of Cytochrome P450 2C19 (P33261 whole entry): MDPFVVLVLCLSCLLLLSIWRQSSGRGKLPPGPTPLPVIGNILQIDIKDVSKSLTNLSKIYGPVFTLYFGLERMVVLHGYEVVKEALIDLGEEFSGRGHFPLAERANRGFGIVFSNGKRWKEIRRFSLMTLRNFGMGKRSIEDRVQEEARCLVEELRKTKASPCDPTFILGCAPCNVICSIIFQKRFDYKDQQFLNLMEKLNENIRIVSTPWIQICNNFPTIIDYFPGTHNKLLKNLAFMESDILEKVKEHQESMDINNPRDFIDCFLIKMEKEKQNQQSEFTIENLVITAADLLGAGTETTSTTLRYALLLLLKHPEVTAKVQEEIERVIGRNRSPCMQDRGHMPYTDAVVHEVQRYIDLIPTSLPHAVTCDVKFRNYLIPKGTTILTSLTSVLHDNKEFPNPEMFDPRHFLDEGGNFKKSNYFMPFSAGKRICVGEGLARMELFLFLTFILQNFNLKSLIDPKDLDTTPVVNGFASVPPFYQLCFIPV

| SMILES | IC50 [1] | EC50 [2] | AC50 (Cytochrome P450 2D6) | also measured |
| --- | --- | --- | --- | --- |
| Cc1cc(C)n2nc(CC(=O)NNC(=O)c3ccccc3Cl)nc2n1 | > 47.1 µM (inactive) | > 53 µM (inactive) | – | – |
| SC1=NCN(CCc2ccccc2)CN1Cc1ccccc1 | > 47.1 µM (inactive) | > 53 µM (inactive) | – | – |
| O=C(Nc1ccccn1)c1ccc(C(=O)c2ccccc2)cc1 | – | – | – | IC50 (cells): 32.6 µM (active) |
| COc1ccc2c3c([nH]c2c1)[C@@H](CO)N(C(=O)c1cccc(F)c1)CC31CCN(C(=O)c2ccccc2)CC1 | – | – | – | AC50 [3]: 5.71 µM (active) |
| CCOC(=O)c1cc(NC(=O)Nc2cc(C)ccn2)c(C)nc1C | > 47.1 µM (inactive) | > 53 µM (inactive) | – | – |
| OC(c1ccccc1)(c1ccccc1)C1CCCN1 (stereo unspecified) | – | – | 25.1 µM (inconclusive) | AC50 (Cytochrome P450 2C19): 1.41 µM (inconclusive) |
| O=C(NCC1CCCO1)C1c2ccccc2C(=O)N1Cc1ccc2c(c1)OCO2 (stereo unspecified) | – | – | 15.8 µM (inconclusive) | AC50 (Cytochrome P450 1A2): 15.8 µM (inconclusive); AC50 (Cytochrome P450 2C9): 11.2 µM (inconclusive) |
| CSCCO/C(O)=C1/Sc2cc(C)ccc2N=C1C | – | – | – | IC50 [4]: 52.9 µM (active) |
| O=C(N/N=C/c1cccc(OCc2ccccc2)c1)c1cccs1 | – | – | 25.1 µM (inconclusive) | AC50 (Cytochrome P450 3A4): 20 µM (inconclusive) |
| O=C(NCCc1csc(-c2ccccc2)n1)c1c(F)cccc1Cl | > 47.1 µM (inactive) | > 53 µM (inactive) | – | – |
| COCC(C)n1c(C)cc(C(=O)CSc2nnc(Nc3ccccc3F)s2)c1C (stereo unspecified) | – | – | 25.1 µM (inconclusive) | AC50 (Cytochrome P450 1A2): 28.2 µM (inconclusive) |
| CN1CCC(O)(c2ccc(Cl)cc2)C(C(=O)c2ccc(Cl)cc2)C1 (stereo unspecified) | – | – | – | IC50 (cells): 38.5 µM (active) |
| COc1ccc(O[C@H]2C=C[C@@H](c3ccccc3)O[C@H]2CO/N=C2/[C@H]3O[C@@H]3[C@@H](O)[C@H]3[C@H]2CCn2c(=O)n(-c4ccccc4)c(=O)n23)cc1 | – | – | 3.98 µM (inconclusive) | AC50 (Cytochrome P450 2C9): 2 µM (inconclusive) |
| C=CCn1c(SCC(=O)c2c(N)n(C)c(=O)n(C)c2=O)nc2sc(CC)cc2c1=O | – | – | – | EC50 [5]: 26.2 µM (active); EC50 [6]: 23.3 µM (active) |
| OCCOCCN1CCN(C(S)=Nc2ccccc2)CC1 | > 47.1 µM (inactive) | > 53 µM (inactive) | – | – |
| Nc1nc(O)cc(Nc2ccccc2Cl)n1 | > 47.1 µM (inactive) | > 53 µM (inactive) | – | – |
| CCOc1c2ccc(C(=O)N[C@H](C)C3CCCCC3)cc2nn1CC | – | – | 10 µM (inconclusive) | AC50 (Cytochrome P450 2C19): 28.2 µM (inconclusive); AC50 (Cytochrome P450 1A2): 12.6 µM (inconclusive); AC50 (Cytochrome P450 3A4): 25.1 µM (inconclusive); AC50 (Cytochrome P450 2C9): 14.1 µM (inconclusive) |
| COc1ccc(/C=N/NC(=O)c2ccncc2)cc1CN1CCOCC1 | – | – | – | IC50 (cells): 0.64 µM (active) |
| CCc1sc(N2[C@@H](C#N)[C@@H](c3ccccc3-c3ccccc3)[C@@H]2CO)nc1C | – | – | – | AC50 [3]: 8.33 µM (active) |
